# In article PMC7182988 (Saudi Journal of Biological Sciences, 2020):
# “Also recorded” adds a separate entry of the source. Like-named read-outs stand apart in the source and are kept apart here.
# Tests used:
# human recombinant COX-2 = target: T1, human recombinant COX-2 (Homo sapiens, UniProt P35354); assay: COX-2; assay type: biochemical; conditions: for COX-2% (percentage of inhibition of COX-2): at 40 μg/mL; for inhibition at 40 µg/mL: read-out: COX-2% (percentage of inhibition of COX-2)
# T1 sequence (P35354 18-604): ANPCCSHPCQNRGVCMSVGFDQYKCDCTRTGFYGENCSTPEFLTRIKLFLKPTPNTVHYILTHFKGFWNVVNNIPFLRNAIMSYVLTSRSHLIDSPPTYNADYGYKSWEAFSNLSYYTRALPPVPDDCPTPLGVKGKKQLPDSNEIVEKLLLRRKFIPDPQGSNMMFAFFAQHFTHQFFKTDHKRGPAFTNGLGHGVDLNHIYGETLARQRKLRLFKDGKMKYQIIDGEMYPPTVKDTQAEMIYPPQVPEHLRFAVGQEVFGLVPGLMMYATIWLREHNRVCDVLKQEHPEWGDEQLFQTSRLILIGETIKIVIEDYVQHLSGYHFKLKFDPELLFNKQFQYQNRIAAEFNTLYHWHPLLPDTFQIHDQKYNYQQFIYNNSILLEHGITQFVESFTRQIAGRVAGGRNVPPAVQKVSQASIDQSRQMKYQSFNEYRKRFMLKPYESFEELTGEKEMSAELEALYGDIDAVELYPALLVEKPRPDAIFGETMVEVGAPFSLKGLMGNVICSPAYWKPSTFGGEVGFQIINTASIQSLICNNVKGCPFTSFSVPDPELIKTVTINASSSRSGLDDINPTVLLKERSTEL
# [1] = test system: LPS-induced IL-6 in WI-38 fibroblast cells; assay: ELISA assay for IL-6 release in LPS-stimulated cells; assay type: cell-based; conditions: for IL-6 (pg/ml)% (percentage of inhibition of IL-6): WI-38 cells, test compounds 10 µM, LPS 0.5 µg/mL, LPS alone = 100; for inhibition of IL-6 release (in words): LPS-stimulated WI-38 fibroblast cells
# [2] = test system: LPS-induced TNF-α in WI-38 fibroblast cells; assay: ELISA assay for TNF-α release in LPS-stimulated cells; assay type: cell-based; conditions: for TNF-α (pg/ml)% (percentage of inhibition of TNF-α): WI-38 cells, test compounds 10 µM, LPS 0.5 µg/mL, LPS alone = 100; for inhibition of TNF-α release (in words): LPS-stimulated WI-38 fibroblast cells
# human recombinant COX-1 = human recombinant COX-1 (Homo sapiens, UniProt P23219); assay: COX-1; assay type: biochemical; conditions: for COX-1% (percentage of inhibition of COX-1): at 40 μg/mL; for Selectivity IC50 COX-1/IC50 COX-2: defined as IC50 COX-1/IC50 COX-2; for inhibition at 40 µg/mL: read-out: COX-1% (percentage of inhibition of COX-1)
# human recombinant COX-1, sequence (P23219 24-599): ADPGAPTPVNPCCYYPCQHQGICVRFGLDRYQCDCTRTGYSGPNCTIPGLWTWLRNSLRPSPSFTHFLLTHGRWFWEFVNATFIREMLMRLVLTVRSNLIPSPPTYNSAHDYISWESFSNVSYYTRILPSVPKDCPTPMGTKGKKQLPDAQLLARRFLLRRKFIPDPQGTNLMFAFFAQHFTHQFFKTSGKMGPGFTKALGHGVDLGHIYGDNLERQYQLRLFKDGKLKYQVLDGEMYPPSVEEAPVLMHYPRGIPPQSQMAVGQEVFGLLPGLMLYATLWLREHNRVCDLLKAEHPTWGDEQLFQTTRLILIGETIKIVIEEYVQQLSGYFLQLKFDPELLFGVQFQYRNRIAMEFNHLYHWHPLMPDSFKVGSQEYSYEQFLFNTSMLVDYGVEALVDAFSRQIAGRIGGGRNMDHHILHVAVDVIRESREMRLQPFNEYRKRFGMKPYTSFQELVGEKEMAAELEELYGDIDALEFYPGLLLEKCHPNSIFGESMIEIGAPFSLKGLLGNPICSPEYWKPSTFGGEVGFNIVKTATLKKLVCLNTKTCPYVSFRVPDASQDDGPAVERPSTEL
# [3] = read-out: COX-2 IC50 (μM ± SD), mean ± SD of triplicate experiments
# [4] = read-out: COX-1 IC50 (μM ± SD), mean ± SD of triplicate experiments
SMILES,Selectivity IC50 COX-1/IC50 COX-2 (human recombinant COX-1) [%],IC50 (human recombinant COX-2) [µM],inhibition at 40 µg/mL (human recombinant COX-2) [%],IC50 (human recombinant COX-1) [µM],inhibition at 40 µg/mL (human recombinant COX-1) [%],other results
"CC(=O)O[C@@H]1CC[C@@]2(C)[C@@H](CC[C@]3(C)[C@@H]2C(=O)C=C2[C@@H]4[C@@H](C)[C@H](C)CC[C@]4(C)CC[C@]23C)[C@@]1(C)C(=O)O [Acetyl-keto boswellic acid, reference compound]",10,–,–,–,–,COX-2% (percentage of inhibition of COX-2) (human recombinant COX-2): 19.87%; IC50 (human recombinant COX-2; [3]): 82.52 ± 0.62 µM; IL-6 (pg/ml)% (percentage of inhibition of IL-6) [1]: 7.31%; TNF-α (pg/ml)% (percentage of inhibition of TNF-α) [2]: 18.76%; COX-1% (percentage of inhibition of COX-1) (human recombinant COX-1): 71.42%; IC50 (human recombinant COX-1; [4]): 7.84 ± 0.13 µM
"CC(=O)O[C@@H]1CC[C@@]2(C)[C@@H](CC[C@]3(C)[C@@H]2CC=C2[C@@H]4CC(C)(C)CC[C@]4(C)CC[C@]23C)[C@@]1(C)C(=O)O [Acetyl-α-boswellic acid, reference compound]",10,–,–,–,–,COX-2% (percentage of inhibition of COX-2) (human recombinant COX-2): 7.98%; IC50 (human recombinant COX-2; [3]): > 100 µM; IL-6 (pg/ml)% (percentage of inhibition of IL-6) [1]: 15.73%; TNF-α (pg/ml)% (percentage of inhibition of TNF-α) [2]: 14.87%; COX-1% (percentage of inhibition of COX-1) (human recombinant COX-1): 69.81%; IC50 (human recombinant COX-1; [4]): 10.1 ± 0.17 µM
"CC(=O)O[C@@H]1CC[C@@]2(C)[C@@H](CC[C@]3(C)[C@@H]2CC=C2[C@@H]4[C@@H](C)[C@H](C)CC[C@]4(C)CC[C@]23C)[C@@]1(C)C(=O)O [Acetyl-β-boswellic acid, reference compound]",11,–,–,–,–,COX-2% (percentage of inhibition of COX-2) (human recombinant COX-2): 14.87%; IC50 (human recombinant COX-2; [3]): 72.52 ± 0.51 µM; IL-6 (pg/ml)% (percentage of inhibition of IL-6) [1]: 11.42%; TNF-α (pg/ml)% (percentage of inhibition of TNF-α) [2]: 19.87%; COX-1% (percentage of inhibition of COX-1) (human recombinant COX-1): 75.73%; IC50 (human recombinant COX-1; [4]): 8.16 ± 0.1 µM
"Cc1ccc(-c2cc(C(F)(F)F)nn2-c2ccc(S(N)(=O)=O)cc2)cc1 [Celecoxib, reference compound]",–,–,–,–,–,IL-6 (pg/ml)% (percentage of inhibition of IL-6) ([1]; 10 µM): 24.77%
"O=C(c1ccccc1)C1C(c2cc3ccccc3o2)C2CSCN2[C@@]12C(=O)Nc1ccc(Cl)cc12 (stereo partly drawn) [Compound 5a, (3S)-7'-(Benzofuran-2-yl)-6'-benzoyl-5-chloro-1',6',7',7a'-tetrahydro-3'H-spiro[indoline-3,5'-pyrrolo[1,2-c]thiazol]-2-one]",23,88.1 ± 1.78,11.2,20.4 ± 0.55,57.4,–
"O=C(c1ccc(F)cc1)C1C(c2cc3ccccc3o2)C2CSCN2[C@@]12C(=O)Nc1ccc(Cl)cc12 (stereo partly drawn) [Compound 5c, (3S)-7'-(Benzofuran-2-yl)-5-chloro-6'-(4-fluorobenzoyl)-1',6',7',7a'-tetrahydro-3'H-spiro[indoline-3,5'-pyrrolo[1,2-c]thiazol]-2-one]",49,76.2 ± 1.46,8.33,37 ± 1.54,40.8,–
"O=C(c1ccc(F)cc1)C1C(c2cc3ccccc3o2)C2C3CCCCC3CN2[C@@]12C(=O)Nc1ccc(Cl)cc12 (stereo partly drawn) [Compound 5d, (3S)-1'-(benzofuran-2-yl)-5-chloro-2'-(4-fluorobenzoyl)-1',2',5',5a',6',7',8',9',9a',9b'-decahydrospiro-[indoline-3,3'-pyrrolo[2,1-a]isoindol]-2-one]",–,–,7.77,–,19.8,inhibition of IL-6 release (in words) [1]: markedly inhibited; also recorded: most effective; also recorded: high potency; inhibition of TNF-α release (in words) [2]: markedly inhibited; also recorded: most effective; also recorded: high potency
"O=C(c1ccc(F)cc1)C1C(c2cc3ccccc3o2)C2C3CCCCC3CN2[C@@]12C(=O)Nc1ccc(Br)cc12 (stereo partly drawn) [Compound 5e, (3S)-1'-(Benzofuran-2-yl)-5-bromo-2'-(4-fluorobenzoyl)-1',2',5',5a',6',7',8',9',9a',9b'-decahydrospiro-[indoline-3,3'-pyrrolo[2,1-a]isoindol]-2-one]",–,–,1.8,–,9.43,inhibition of IL-6 release (in words) [1]: markedly inhibited; also recorded: most effective; also recorded: high potency; inhibition of TNF-α release (in words) [2]: markedly inhibited; also recorded: most effective; also recorded: high potency
"O=C(c1ccc(Br)cc1)C1C(c2cc3ccccc3o2)C2C3CCCCC3CN2[C@@]12C(=O)Nc1ccc(Cl)cc12 (stereo partly drawn) [Compound 5f, (3S)-1'-(Benzofuran-2-yl)-2'-(4-bromobenzoyl)-5-chloro-1',2',5',5a',6',7',8',9',9a',9b'-decahydrospiro-[indoline-3,3'-pyrrolo[2,1-a]isoindol]-2-one]",–,–,5.92,–,32.1,inhibition of IL-6 release (in words) [1]: markedly inhibited; also recorded: most effective; also recorded: high potency; inhibition of TNF-α release (in words) [2]: markedly inhibited; also recorded: most effective; also recorded: high potency
"O=C(c1ccc(Br)cc1)C1C(c2cc3ccccc3o2)C2C3CCCCC3CN2[C@@]12C(=O)Nc1ccc(Br)cc12 (stereo partly drawn) [Compound 5g, (3S)-1'-(Benzofuran-2-yl)-5-bromo-2'-(4-bromobenzoyl)-1',2',5',5a',6',7',8',9',9a',9b'-decahydrospiro-[indoline-3,3'-pyrrolo[2,1-a]isoindol]-2-one]",–,–,2.76,–,19.8,inhibition of IL-6 release (in words) [1]: markedly inhibited; also recorded: most effective; also recorded: high potency; inhibition of TNF-α release (in words) [2]: markedly inhibited; also recorded: most effective; also recorded: high potency
"O=C(c1ccc(Br)cc1)C1C(c2cc3ccccc3o2)C2CSCN2[C@@]12C(=O)Nc1ccc(Br)cc12 (stereo partly drawn) [Compound 5h, (3S)-7'-(Benzofuran-2-yl)-5-bromo-6'-(4-bromobenzoyl)-1',6',7',7a'-tetrahydro-3'H-spiro[indoline-3,5'-pyrrolo[1,2-c]thiazol]-2-one]",42,84.7 ± 1.16,9.8,35.7 ± 0.51,41.7,–
"O=C(c1ccc(Br)cc1)C1C(c2cc3ccccc3o2)C2CSCN2[C@@]12C(=O)Nc1ccc(Cl)cc12 (stereo partly drawn) [Compound 5i, (3S)-7'-(Benzofuran-2-yl)-6'-(4-bromobenzoyl)-5-chloro-1',6',7',7a'-tetrahydro-3'H-spiro[indoline-3,5'-pyrrolo[1,2-c]thiazol]-2-one]",41,71.2 ± 1.29,17.9,29.55 ± 0.19,44.5,–
"O=C(c1ccc(C(F)(F)F)cc1)C1C(c2cc3ccccc3o2)C2CSCN2[C@@]12C(=O)Nc1ccc(Cl)cc12 (stereo partly drawn) [Compound 5l, (3S)-7'-(Benzofuran-2-yl)-5-chloro-6'-(4-(trifluoromethyl)benzoyl)-1',6',7',7a'-tetrahydro-3'H-spiro-[indoline-3,5'-pyrrolo[1,2-c]thiazol]-2-one]",–,58.8 ± 1.58,19.8,31.25 ± 0.24,47.7,–
"O=C(c1ccc(Cl)cc1)C1C(c2cc3ccccc3o2)C2CSCN2[C@@]12C(=O)Nc1ccc(Cl)cc12 (stereo partly drawn) [Compound 5p, (3S)-7'-(Benzofuran-2-yl)-5-chloro-6'-(4-chlorobenzoyl)-1',6',7',7a'-tetrahydro-3'H-spiro[indoline-3,5'-pyrrolo[1,2-c]thiazol]-2-one]",45,85.7 ± 1.51,9.98,38.2 ± 0.96,52.8,–
"COc1ccc2c(c1)c(CC(=O)O)c(C)n2C(=O)c1ccc(Cl)cc1 [Indomethacin, reference compound]",–,–,–,–,87.3,–
"C[C@H]1[C@H](C)CC[C@]2(C)CC[C@]3(C)C(=CC[C@@H]4[C@@]5(C)CC[C@@H](O)[C@](C)(C(=O)O)[C@@H]5CC[C@]43C)[C@H]12 [β-Boswellic acid, reference compound]",18,> 100,7.66,18.1 ± 0.42,64.8,–
